US20030091601A1, “Use of topical arginine to enhance wound healing” (ABAT Inc., priority 2001, published 2003)

System: wound site
Experiment: Hydroxyproline (OHP) content of subcutaneous PVA sponges fed by mini-osmotic pump at a dorsal skin incision, index of wound reparative collagen accumulation
Assay type: in vivo, rats
Details: for OHP (collagen synthesis): day 14 post-wounding, mean±SEM
Procedure: (§1) Twenty-eight (28) male adult rats were obtained from a commercial breeder. Rats were housed individually in stainless steel cages at a constant temperature (25°±1° C.) and relative humidity (40-50%). The cages were kept in a room with a twelve-hour light-twelve-hour dark cycle. All animals were allowed at least one week of acclimatization to the laboratory conditions prior to use in the experiments. During this time, they were fed a standard laboratory chow and drank tap water ad libitum.
After the period of acclimatization, the rats were randomly placed into four groups, seven rats per group. Under pentobarbital anesthesia, their backs were shaved and scrubbed with an organic iodine solution and a dorsal skin incision was made. Subcutaneously at the skin incision, a mini-osmotic pump (model 2002, 0.5 μl/hr, Alzet Co.) attached to a polyvinyl alcohol sponge was inserted. Pumps were filled either with PBS or various solutions of arginine in PBS as indicated on Table 1. The rats tolerated the procedure well and recovered uneventfully.
The 1M solution delivers 2 mg/animal/day into the sponge. On the fourteenth day post-wounding, rats were sacrificed with an overdose of pentobarbital. The pelt containing the healing scar was excised. The PVA sponges were removed, carefully cleared of surrounding tissue and frozen at −20° C. for subsequent determination of hydroxyproline content as an index of wound reparative collagen accumulation using the method of Woessner. See J. Woessner, Determination of Hydroxproline in Tissue and Protein Samples Containing Small Proportions of this Amino Acid, Biochem. Biophys., Vol.93, p. 440 (1961).
as §1, with “Twenty (20)” for “Twenty-eight (28)”, “As in Experimental Example 1, rats” for “Rats”, “twelve hour light-twelve hour” for “twelve-hour light-twelve-hour”
After the period of acclimatization, the rats were randomly placed into two groups of ten rats. Under pentobarbital anesthesia, the rats' backs were shaved and scrubbed with an organic iodine solution and a dorsal skin incision was made. As in Experimental Example 1, a mini-osmotic pump (model 2002, 0.5 μl/hr, Alzet Co.) attached to a polyvinyl alcohol sponge was inserted subcutaneously at the incision site. Pumps were filled either with PBS or a solution of 1M arginine in PBS as indicated on Table 3. The rats tolerated the procedure well and recovered uneventfully.
as §1, with “Twenty-one (21)” for “Twenty-eight (28)”, “As in Example Experiments 1 and 2, rats” for “Rats”, “twelve hour light-twelve hour” for “twelve-hour light-twelve-hour”
After the period of acclimatization, the rats were randomly placed into two groups, eight (8) rats were placed into Group 1 and treated with PBS only and thirteen (13) rats were placed into Group 2 and treated with 1M omithine in PBS. Under pentobarbital anesthesia, the rats' backs were shave and scrubbed with an organic iodine solution and a dorsal skin incision was made. Subcutaneously at the skin incision, a mini-osmotic pump (model 2002, 0.5 μl/hr, Alzet Co.) attached to a polyvinyl alcohol sponge was inserted. The mini-osmotic pumps were filled either with PBS or a solution of 1M omithine in PBS as indicated on Table 5 below. The rats tolerated the procedure well and recovered uneventfully. […]

| Structure (SMILES) | increase in collagen biosynthesis accumulation compared to the PBS (control) group (Experimental Example 1, arginine 0.01M) [%] | OHP (collagen synthesis) (Experimental Example 1, arginine 0.01 M in PBS by mini-osmotic pump, PBS control 569 ± 27) [μg/100 mg sponge] | increase in collagen biosynthesis accumulation compared to the PBS (control) group (Experimental Example 1, arginine 0.1M) [%] | OHP (collagen synthesis) (Experimental Example 1, arginine 0.1 M in PBS by mini-osmotic pump, PBS control 569 ± 27) [μg/100 mg sponge] | increase in collagen biosynthesis accumulation compared to the PBS (control) group (Experimental Example 1, arginine 1M) | OHP (collagen synthesis) (Experimental Example 1, arginine 1 M in PBS by mini-osmotic pump (2 mg/animal/day), PBS control 569 ± 27) [μg/100 mg sponge] | increase in collagen biosynthesis accumulation compared to the PBS (control) group (Experimental Example 2, arginine 1M) | OHP (collagen synthesis) (Experimental Example 2, arginine 1 M in PBS by mini-osmotic pump (2 mg/animal/day), PBS control 574 ± 43) [μg/100 mg sponge] | increase in collagen biosynthesis accumulation compared to the PBS (control) group (Experimental Example 3, ornithine 1M) | OHP (collagen synthesis) (Experimental Example 3, ornithine 1 M in PBS by mini-osmotic pump, PBS control 588 ± 45) [μg/100 mg sponge] |
| --- | --- | --- | --- | --- | --- | --- | --- | --- | --- | --- |
| N=C(N)NCCC[C@H](N)C(=O)O [Arginine, arginine] | ≥ 10 | 633 ± 54 | ≥ 10 | 698 ± 74 | over 60% | 928 ± 55 | over 30% | 797 ± 48 | – | – |
| NCCC[C@H](N)C(=O)O [Ornithine, ornithine] | – | – | – | – | – | – | – | – | over 45% | 854 ± 71 |
